The values below come from US9913849B2, “Treatment of migraines” (Manistee Partners LLC, priority 2014, dated 2018).

Data set [1] concerns subject with a history of migraine headaches. Nature of the data set: Migraine case reports, topical administration to the eye(s). To be noted: Example 1: person, 0.0004% single drop in both eyes once per day in the evening, 30 days. It counts as in vivo, human. The protocol:
A subject was treated with ocular administration of travoprost 0.0004% once per day as a single drop in both eyes in the evening. The subject reported that they had no migraines after being on therapy for 30 days.
A person with a fifteen year history of severe migraine headaches refractory to multiple therapies, started treatment with TRAVATAN Z® (travoprost ophthalmic solution) administered topically to one eye daily.
A person with a history of migraine headaches (one per week) was started on daily topical administration of the prostaglandin, XALATAN® (latanoprost ophthalmic solution), to both eyes daily.

The conditions of data set [2]: cited from earlier work.
The conditions of data set [3]: cited from earlier work. The source holds these as a separate data set.
The conditions of data set [4]: one drop 0.0015% solution once daily into each eye, cited from earlier work.
For data set [5] the following is noted: cited from earlier work. The source holds these as a separate data set.
Where [6] appears, read: blood, days 7 and 14, 0.03% once daily to both eyes.

SMILES strings stand for the structures. Read-outs that look alike come from different tables or passages of the source.

As to `CC(C)OC(=O)CCC/C=C\C[C@@H]1[C@@H](/C=C/[C@@H](O)COc2cccc(C(F)(F)F)c2)[C@H](O)C[C@@H]1O` (relative stereo) [travoprost, [1R-[1α(Z),2β(1E,3R*),3α, 5α]]-7-[3,5-Dihydroxy-2-[3-hydroxy-4-[3-(trifluoromethyl)phenoxy]-1-butenyl]cyclopentyl]-5-heptenoic acid, 1-methylethylester], in data set [1], the “migraines reported on therapy” value is “no migraines”.

Turning to `CCNC(=O)CCC/C=C\C[C@@H]1[C@@H](/C=C/[C@@H](O)CCc2ccccc2)[C@H](O)C[C@@H]1O` [Bimatoprost, (Z)-7-[(1R,2R,3R,5S)-3,5Dihydroxy-2-[(1E,3S)-3-hydroxy-5-phenyl-1-pentenyl]cyclopentyl]-5-N-ethylheptenamide], in data set [2] (setting [6]), the “mean AUCO-24 hr” value is about 0.09 ng·h/mL and the “mean Cmax” value is “approximately 0.08 ng/mL”. Moreover, the “distribution in human blood” value in data set [2] (human blood) is on record as “resides mainly in the plasma”. Moreover, the “steady-state volume of distribution” value in data set [2] (human, in vivo) is 0.67 L/kg. Further, the “blood concentration (below lower limit of detection)” value in data set [2] (in most subjects within 1.5 hours after dosing, 0.03% once daily to both eyes) is reported as under 0.025 ng/mL. For the same compound, in data set [2] (one drop 0.03% once daily to both eyes, 15 healthy subjects, two weeks), the “time at which blood concentrations peaked after dosing” value is at most 10 min.

For the compound `CC(C)OC(=O)CCC/C=C\C[C@@H]1[C@@H](CC[C@@H](O)CCc2ccccc2)[C@H](O)C[C@@H]1O` [Latanoprost, isopropyl-(Z)7[(1R,2R,3R,5S)3,5-dihydroxy-2-[(3R)-3-hydroxy-5-phenylpentyl]cyclopentyl]-5-heptenoate, reference compound], the distribution volume in data set [3] (in humans) was 0.16 ± 0.02 L/kg.

With `O=C(O)CCC/C=C\C[C@@H]1[C@@H](CC[C@@H](O)CCc2ccccc2)[C@H](O)C[C@@H]1O` [acid of latanoprost], in data set [3] (after local administration), the “time during which the acid can be measured in aqueous humor” value was at most 4 h and the “time during which the acid can be measured in plasma” value is reported as “only during the first hour”.

Regarding `O=C(O)CCC/C=C\C[C@@H]1[C@@H](/C=C/C(F)(F)COc2ccccc2)[C@H](O)C[C@@H]1O` [tafluprost acid], in data set [4] (Day 1), the “mean plasma AUC estimate of tafluprost acid” value is 394 pg·min/mL and the “mean plasma Cmax of tafluprost acid” value is 26 pg/mL. Also, in data set [4] (Day 8), the “mean plasma AUC estimate of tafluprost acid” value is 432 pg·min/mL and the “mean plasma Cmax of tafluprost acid” value is reported as 27 pg/mL. Also, the “median time at which plasma concentrations of tafluprost acid peaked” value in data set [4] (healthy volunteers, both Days 1 and 8) was 10 min.

Consider `O=C(O)CCC/C=C\C[C@@H]1[C@@H](/C=C/[C@@H](O)COc2cccc(C(F)(F)F)c2)[C@H](O)C[C@@H]1O` [travoprost free acid], for which, in data set [5] (individuals with quantifiable plasma concentrations (N=38)), the “mean plasma Cmax” value was 0.018 ± 0.007 ng/mL. Besides, the “plasma concentrations of the free acid (below quantitation limit of the assay)” value in data set [5] (single drop daily in both eyes, in two-thirds of the subjects) is given as “below 0.01 ng/ml”.
